Experimental data from patent US20140308317A1, “Polymeric Compounds And Methods Of Making And Using The Same” (CELLCEUTIX CORPORATION, priority 2012, published 2014).
≈ marks a conversion by molar mass, not a printed value.

Assays:
[1] = tested on: Klebsiella pneumoniae ATCC 13883; experiment: Minimum Inhibitory Concentration (MIC), modified microbroth dilution; assay type: cell-based; settings: K. pneumoniae (13883), overnight incubation (18 hours); for MIC50: Klebsiella pneumoniae, ATCC13883, read-out: MIC50 K. Pnuemnoiae
HepG2, HB-8065 = experiment: Cytotoxicity colorimetric (tetrazolium) assay; assay type: cell-based, human; settings: HepG2 cells; one hour with compound in serum-free media
Procedure: (§1) Cytotoxicity of the compounds was evaluated in a colorimetric assay using a transformed human liver cell line (HepG2, HB-8065) and an embryonic mouse cell line (NIH/3T3 cells, CRL-1658). This assay measures the bioreduction of a novel tetrazolium compound to a soluble formazan product by viable cells. HepG2 cells were seeded in 96 well plates at 2×10^4 cells/well in MEM medium with 10% fetal bovine serum (FBS) 24 hours prior to use. NIH/3T3 cells were seeded in 96 well plates at 2×10^4 cells/well in DMEM medium with 10% bovine calf serum (BCS) 24 hours prior to use. Cell monolayers were rinsed in serum-free media and incubated for one hour with compounds in serum-free media. After incubation, the media is replaced with serum supplemented media and live cells were measured using the Cell Titer 96 Aqueous […] Assay kit (Promega, Madison, Wis.). EC50 values were determined using a four parameter logistic equation: Y=Bottom+(Top-Bottom)/(1+10̂((LogEC50−X)*HillSlope)).
(§2) Actual results from a representative cytotoxicity assay are shown below in Table 2. Data is expressed as EC50 in μg/mL.

[2] = tested on: Enterococcus faecalis ATCC 29212; experiment: Minimum Inhibitory Concentration (MIC), modified microbroth dilution; assay type: cell-based; settings: E. faecalis (29212), overnight incubation (18 hours); for MIC50: Enterococcus faecalis, ATCC29212, read-out: MIC50 E. faecalis
NIH/3T3 cells, CRL-1658 = experiment: Cytotoxicity colorimetric (tetrazolium) assay; assay type: cell-based, mouse; settings: NIH/3T3 cells; one hour with compound in serum-free media
Procedure: as §1, §2

[3] = tested on: Pseudomonas aeruginosa ATCC 10145; experiment: Minimum Inhibitory Concentration (MIC), modified microbroth dilution; assay type: cell-based; settings: P. aeruginosa (10145), overnight incubation (18 hours); for MIC50: Pseudomonas aeruginosa, ATCC10145, read-out: MIC50 P. Aeruginosa
[4] = tested on: Staphylococcus aureus ATCC 27660; experiment: as above; assay type: cell-based; settings: S. aureus (27660), overnight incubation (18 hours); for MIC50: Staphylococcus aureus, ATCC27660, read-out: MIC50 S. aureus
E. Coli ATCC 25922 = experiment: as above; assay type: cell-based; settings: E. coli (25922), overnight incubation (18 hours); for MIC50: Escherichia coli, ATCC25922, read-out: MIC50 E. coli
[5] = Cytotoxicity colorimetric (tetrazolium) assay; assay type: cell-based, human; settings: human, HepG2 cells (HB-8065), HepG2 cells; one hour with compound in serum-free media
Procedure: as §1, §2

[6] = Cytotoxicity colorimetric (tetrazolium) assay; assay type: cell-based, mouse; settings: mouse, NIH/3T3 cells (CRL-1658), NIH/3T3 cells; one hour with compound in serum-free media
Procedure: as §1, §2

Row | Compound | MIC50 K. Pnuemnoiae [1] [µg/mL] | MIC50 E. faecalis [2] [µg/mL] | MIC50 P. Aeruginosa [3] [µg/mL] | MIC50 S. aureus [4] [µg/mL] | MIC50 E. coli (E. Coli ATCC 25922) [µg/mL] | MIC50 [1] [µg/mL] | MIC50 [2] [µg/mL] | MIC50 [3] [µg/mL] | MIC50 [4] [µg/mL] | MIC50 (E. Coli ATCC 25922) [µg/mL] | EC50 HepG2 (cytotoxicity) (HepG2, HB-8065) [µg/mL] | EC50 NIH 3T3 (cytotoxicity) (NIH/3T3 cells, CRL-1658) [µg/mL] | EC50 at 1 h [5] [µg/mL] | EC50 at 1 h [6] [µg/mL]
1 | Cc1cc(-c2cc(OCCCN)cc(OCCCN)c2)cc(-c2cc(C)cc(-c3cc(OCCCN)cc(OCCCN)c3)c2)c1 [Compound 147] | 1.56 (≈ 2.49 µM) | 0.78 (≈ 1.24 µM) | 6.25 (≈ 9.97 µM) | 0.39 (≈ 0.622 µM) | 1.56 (≈ 2.49 µM) |  |  |  |  |  | 164 (≈ 262 µM) | 50.94 (≈ 81.3 µM) |  | 
2 | NCCNC(=O)c1cc(C(=O)NCCN)cc(-c2ccc3oc4ccc(-c5cc(C(=O)NCCN)cc(C(=O)NCCN)c5)cc4c3c2)c1 [Compound 168] | >50 | >50 | >50 | 3.13 (≈ 4.71 µM) | >50 |  |  |  |  |  | 72.6 (≈ 109 µM) | 32.4 (≈ 48.7 µM) |  | 
3 | Cc1cc(-c2cc(OCCCN)cc(OCCCN)c2)cc(-c2cc(-c3cc(OCCCN)cc(OCCCN)c3)cc(C)c2F)c1F [Compound 149] | 3.13 (≈ 4.72 µM) | 1.56 (≈ 2.35 µM) | 6.25 (≈ 9.43 µM) | 0.78 (≈ 1.18 µM) | 3.13 (≈ 4.72 µM) |  |  |  |  |  | 98.5 (≈ 149 µM) | 59.19 (≈ 89.3 µM) |  | 
4 | NCCCOc1cc(OCCCN)cc(-c2cc(-c3cc(-c4cc(OCCCN)cc(OCCCN)c4)cc(C(F)(F)F)c3)cc(C(F)(F)F)c2)c1 [Compound 146] | 1.56 to 3.13 | 0.78 to 1.56 | 6.25 (≈ 8.51 µM) | 1.56 (≈ 2.12 µM) | 1.56 to 3.13 |  |  |  |  |  | 58.6 (≈ 79.8 µM) | 35.82 (≈ 48.7 µM) |  | 
5 | NCCCOc1cc(OCCCN)cc(-c2cc(F)cc(-c3cc(F)cc(-c4cc(OCCCN)cc(OCCCN)c4)c3)c2)c1 [Compound 148] | 1.56 (≈ 2.46 µM) | 0.78 (≈ 1.23 µM) | 3.13 (≈ 4.93 µM) | 0.39 (≈ 0.614 µM) | 1.56 (≈ 2.46 µM) |  |  |  |  |  | 244 (≈ 384 µM) | 53.77 (≈ 84.7 µM) |  | 
6 | NCCC#Cc1cc(-c2cc(OCCCN)cc(-c3cc(C#CCCN)cc(C(F)(F)F)c3)c2)cc(C(F)(F)F)c1 [Compound 122] | 3.13 (≈ 5.46 µM) | 1.56 (≈ 2.72 µM) | 12.5 (≈ 21.8 µM) | 1.56 (≈ 2.72 µM) | 3.13 (≈ 5.46 µM) |  |  |  |  |  |  | 14.5 (≈ 25.3 µM) |  | 
7 | NCCCNC(=O)c1cc(C(=O)NCCCN)cc(-c2ccc3sc4ccc(-c5cc(C(=O)NCCCN)cc(C(=O)NCCCN)c5)cc4c3c2)c1 [Compound 171] | >100 | >100 | >100 | 6.25 (≈ 8.48 µM) | >100 |  |  |  |  |  | 236 (≈ 320 µM) | 46.5 (≈ 63.1 µM) |  | 
8 | NCCN(CCN)Cc1ccc(F)c(-c2ccc3sc4ccc(-c5cc(CN(CCN)CCN)ccc5F)cc4c3c2)c1 [Compound 180] | 1.56 (≈ 2.59 µM) | 3.13 (≈ 5.19 µM) | 3.13 (≈ 5.19 µM) | 0.098 (≈ 0.163 µM) | 1.56 (≈ 2.59 µM) |  |  |  |  |  | 104 (≈ 173 µM) | 43.1 (≈ 71.5 µM) |  | 
9 | NCCCOc1cc(OCCCN)cc(-c2ccc(F)c(-c3cc(-c4cc(OCCCN)cc(OCCCN)c4)ccc3F)c2)c1 [Compound 145] | 1.56 to 3.13 | 0.78 to 1.56 | 12.5 (≈ 19.7 µM) | 1.56 (≈ 2.46 µM) | 1.56 to 3.13 |  |  |  |  |  | 302 (≈ 476 µM) | 146.3 (≈ 230 µM) |  | 
10 | CCn1c2ccc(-c3cc(C(=O)NCCN)cc(C(=O)NCCN)c3)cc2c2cc(-c3cc(C(=O)NCCN)cc(C(=O)NCCN)c3)ccc21 [Compound 169] | >50 | >50 | >50 | 3.13 (≈ 4.52 µM) | 25 (≈ 36.1 µM) |  |  |  |  |  | 312 (≈ 451 µM) | 450 (≈ 650 µM) |  | 
11 | NCC#Cc1cc(C#CCN)cc(-c2cc(-c3cc(C#CCN)cc(C#CCN)c3)cc(C(F)(F)F)c2)c1 [Compound 125] | 25 (≈ 49 µM) | 12.5 (≈ 24.5 µM) | 12.5 (≈ 24.5 µM) | 12.5 (≈ 24.5 µM) | 12.5 (≈ 24.5 µM) |  |  |  |  |  |  | 26.1 (≈ 51.1 µM) |  | 
12 | O=C(Nc1ccc(-c2ccnc(N3CCNCC3)c2)cc1F)Nc1ccc(-c2ccnc(N3CCNCC3)c2)cc1F [Compound 142] | 25 (≈ 43.8 µM) |  | 25 (≈ 43.8 µM) | 100 (≈ 175 µM) | 12.5 (≈ 21.9 µM) |  |  |  |  |  | 105 (≈ 184 µM) |  |  | 
13 | N=C(N)NCCc1cc(C#Cc2cc(C#Cc3cc(CCNC(=N)N)cc(CCNC(=N)N)c3)c(F)cc2F)cc(CCNC(=N)N)c1 [Compound 193] |  |  |  |  |  | 1.56 (≈ 2.38 µM) | 1.56 (≈ 2.38 µM) | 6.25 (≈ 9.55 µM) | 0.39 (≈ 0.596 µM) | 1.56 (≈ 2.38 µM) |  |  | 178 (≈ 272 µM) | 62.4 (≈ 95.3 µM)

Second part, led by results:

Row | MIC50 K. Pnuemnoiae [1] [µg/mL] | MIC50 E. faecalis [2] [µg/mL] | MIC50 P. Aeruginosa [3] [µg/mL] | MIC50 S. aureus [4] [µg/mL] | MIC50 E. coli (E. Coli ATCC 25922) [µg/mL] | MIC50 [1] [µg/mL] | MIC50 [2] [µg/mL] | MIC50 [3] [µg/mL] | MIC50 [4] [µg/mL] | MIC50 (E. Coli ATCC 25922) [µg/mL] | Compound | EC50 HepG2 (cytotoxicity) (HepG2, HB-8065) [µg/mL] | EC50 NIH 3T3 (cytotoxicity) (NIH/3T3 cells, CRL-1658) [µg/mL] | EC50 at 1 h [5] [µg/mL] | EC50 at 1 h [6] [µg/mL]
14 | 3.13 (≈ 6.3 µM) | 1.56 (≈ 3.14 µM) | 12.5 (≈ 25.2 µM) | 0.78 (≈ 1.57 µM) | 3.13 (≈ 6.3 µM) |  |  |  |  |  | N=C(N)NCCCc1cccc(-c2cc(-c3cccc(CCCNC(=N)N)c3)cc(C(F)(F)F)c2)c1 [Compound 114] | 60.6 (≈ 122 µM) | 83.5 (≈ 168 µM) |  | 
15 | 3.13 (≈ 5.52 µM) | 3.13 (≈ 5.52 µM) | 3.13 (≈ 5.52 µM) | 0.195 (≈ 0.344 µM) | 3.13 (≈ 5.52 µM) |  |  |  |  |  | NCCN(CCN)Cc1cccc(-c2ccc3sc4ccc(-c5cccc(CN(CCN)CCN)c5)cc4c3c2)c1 [Compound 174] | 171 (≈ 302 µM) | 149 (≈ 263 µM) |  | 
16 | 3.13 (≈ 4.58 µM) | 1.56 (≈ 2.28 µM) | 12.5 (≈ 18.3 µM) | 0.78 (≈ 1.14 µM) | 1.56 (≈ 2.28 µM) |  |  |  |  |  | N=C(N)NCCc1cc(CCNC(=N)N)cc(-c2cc(F)cc(-c3cc(F)cc(-c4cc(CCNC(=N)N)cc(CCNC(=N)N)c4)c3)c2)c1 [Compound 151] | 254 (≈ 372 µM) | 72.14 (≈ 106 µM) |  | 
17 | 6.25 (≈ 9.21 µM) | 1.56 (≈ 2.3 µM) | 6.25 (≈ 9.21 µM) | 1.56 (≈ 2.3 µM) | 6.25 (≈ 9.21 µM) |  |  |  |  |  | N=C(N)NCC#Cc1cc(C#CCNC(=N)N)cc(-c2cc(-c3cc(C#CCNC(=N)N)cc(C#CCNC(=N)N)c3)cc(C(F)(F)F)c2)c1 [Compound 126] |  | 59.7 (≈ 88 µM) |  | 
18 | 6.25 (≈ 14 µM) | 3.13 (≈ 7.01 µM) | 25 (≈ 56 µM) | 1.56 (≈ 3.49 µM) | 3.13 (≈ 7.01 µM) |  |  |  |  |  | NCCc1cccc(-c2cc3c(c(-c4cccc(CCN)c4)c2)CCc2ccccc2C3=O)c1 [Compound 152] | 27.5 (≈ 61.6 µM) | 20.9 (≈ 46.8 µM) |  | 
19 |  |  |  |  |  | 0.78 (≈ 0.979 µM) | 0.78 (≈ 0.979 µM) | 6.25 (≈ 7.84 µM) | 0.049 (≈ 0.0615 µM) | 0.78 (≈ 0.979 µM) | N=C(N)NCCCOc1cc(OCCCNC(=N)N)cc(-c2ccc3sc4ccc(-c5cc(OCCCNC(=N)N)cc(OCCCNC(=N)N)c5)cc4c3c2)c1 [Compound 172] |  |  | 35.7 (≈ 44.8 µM) | 41.4 (≈ 51.9 µM)
